Measured values reported in patent US20170190671A1, “BIS(ARYL)CATECHOL DERIVATIVES AS HERBICIDES” (E I DU PONT DE NEMOURS AND COMPANY, priority 2014, published 2017).

Key:
Assay type in all cases: in vivo
[1] = tested on: barnyardgrass (Echinochloa crus-galli); test: Test B flooded paddy; settings: Echinochloa crus-galli, 336 h; 250 g ai/ha, Flood, 13 to 15 days, scale 0 (no effect) to 100 (complete control); read-out: Plant response rating, Barnyardgrass
Method in brief: (§1)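 In-water treatment: compound dosed into 3 cm flood over soil, water level unchanged throughout. Controls run alongside; visual assessment at day 13–15.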

[2] = tested on: ducksalad (Heteranthera limosa); test: Test B flooded paddy; settings: Heteranthera limosa, 336 h; 250 g ai/ha, Flood, 13 to 15 days, scale 0 (no effect) to 100 (complete control); read-out: Plant response rating, Ducksalad
Method in brief: as §1

rice (Oryza sativa) = test: Test B flooded paddy; settings: Oryza sativa, 336 h; 250 g ai/ha, Flood, 13 to 15 days, scale 0 (no effect) to 100 (complete control); read-out: Plant response rating, Rice
Method in brief: as §1

[3] = tested on: sedge, umbrella (small-flower umbrella sedge, Cyperus difformis); test: Test B flooded paddy; settings: Cyperus difformis, 336 h; 250 g ai/ha, Flood, 13 to 15 days, scale 0 (no effect) to 100 (complete control); read-out: Plant response rating, Sedge, Umbrella
Method in brief: as §1

[4] = tested on: Italian ryegrass (Lolium multiflorum); test: Test A preemergence; settings: Lolium multiflorum, pre-emergence, 240 h, 1000 g ai/ha, 0 to 100 scale, read-out: Plant response rating, Ryegrass, Italian
Method in brief: (§2)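 Compounds in non-phytotoxic solvent with surfactant applied as soil spray preemergence, or postemergence to plants 2-10 cm at one- to two-leaf stage, in loam/sand. After approximately 10 days in greenhouse, injury rated visually versus untreated controls, 0 (no effect) to 100 (complete control).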

[5] = tested on: barnyardgrass (Echinochloa crus-galli); test: Test A preemergence; settings: Echinochloa crus-galli, pre-emergence, 240 h, 1000 g ai/ha, 0 to 100 scale, read-out: Plant response rating, Barnyardgrass
Method in brief: as §2

[6] = tested on: giant foxtail (Setaria faberii); test: Test A preemergence; settings: Setaria faberi, pre-emergence, 240 h, 1000 g ai/ha, 0 to 100 scale, read-out: Plant response rating, Foxtail, Giant
Method in brief: as §2

kochia (Kochia scoparia) [7] = test: Test A preemergence; settings: Bassia scoparia, pre-emergence, 240 h, 1000 g ai/ha, 0 to 100 scale, read-out: Plant response rating, Kochia
Method in brief: as §2

[8] = tested on: pigweed (Amaranthus retroflexus); test: Test A preemergence; settings: Amaranthus retroflexus, pre-emergence, 240 h, 1000 g ai/ha, 0 to 100 scale, read-out: Plant response rating, Pigweed
Method in brief: as §2

[9] = tested on: ragweed (common ragweed, Ambrosia elatior); test: Test A preemergence; settings: Ambrosia artemisiifolia, pre-emergence, 240 h, 1000 g ai/ha, 0 to 100 scale, read-out: Plant response rating, Ragweed
Method in brief: as §2

[10] = tested on: Italian ryegrass (Lolium multiflorum); test: Test A postemergence; settings: Lolium multiflorum, post-emergence, 240 h, 1000 g ai/ha, 0 to 100 scale, read-out: Plant response rating, Ryegrass, Italian
Method in brief: as §2

[11] = tested on: barnyardgrass (Echinochloa crus-galli); test: Test A postemergence; settings: Echinochloa crus-galli, post-emergence, 240 h, 1000 g ai/ha, 0 to 100 scale, 0 no effect, 100 complete control, read-out: Plant response rating, Barnyardgrass
Method in brief: as §2

[12] = tested on: blackgrass (Alopecurus myosuroides); test: Test A postemergence; settings: Alopecurus myosuroides, post-emergence, 240 h, 1000 g ai/ha, 0 to 100 scale, read-out: Plant response rating, Blackgrass
Method in brief: as §2

corn (Zea mays) = test: Test A postemergence; settings: Zea mays, post-emergence, 240 h, 1000 g ai/ha, 0 to 100 scale
Method in brief: as §2

[13] = tested on: galium (catchweed bedstraw, Galium aparine); test: Test A postemergence; settings: Galium, post-emergence, 240 h, 1000 g ai/ha, 0 to 100 scale, read-out: Plant response rating, Galium
Method in brief: as §2

[14] = tested on: giant foxtail (Setaria faberii); test: Test A postemergence; settings: Setaria faberi, post-emergence, 240 h, 1000 g ai/ha, 0 to 100 scale, read-out: Plant response rating, Foxtail, Giant
Method in brief: as §2

kochia (Kochia scoparia) [15] = test: Test A postemergence; settings: Bassia scoparia, post-emergence, 240 h, 1000 g ai/ha, 0 to 100 scale, read-out: Plant response rating, Kochia
Method in brief: as §2

[16] = tested on: pigweed (Amaranthus retroflexus); test: Test A postemergence; settings: Amaranthus retroflexus, post-emergence, 240 h, 1000 g ai/ha, 0 to 100 scale, read-out: Plant response rating, Pigweed
Method in brief: as §2

[17] = tested on: ragweed (common ragweed, Ambrosia elatior); test: Test A postemergence; settings: Ambrosia artemisiifolia, post-emergence, 240 h, 1000 g ai/ha, 0 to 100 scale, read-out: Plant response rating, Ragweed
Method in brief: as §2

[18] = tested on: wheat (Triticum aestivum); test: Test A postemergence; settings: Triticum aestivum, post-emergence, 240 h, 1000 g ai/ha, 0 to 100 scale, read-out: Plant response rating, Wheat
Method in brief: as §2

kochia (Kochia scoparia) [19] = test: Test C postemergence; settings: Bassia scoparia, post-emergence, Postemergence, scale 0 to 100, read-out: Plant response rating, Kochia
[20] = tested on: waterhemp (common waterhemp, Amaranthus rudis); test: Test C postemergence; settings: Amaranthus tuberculatus, post-emergence, Postemergence, scale 0 to 100, read-out: Plant response rating, Waterhemp
wild oat (Avena fatua) = test: Test C postemergence; settings: Avena fatua, post-emergence, Postemergence, scale 0 to 100, read-out: Plant response rating, Oat, Wild

Compound Fc1cccc(Oc2ncc(Cl)cn2)c1Oc1ncc(Br)cn1 [Compound 27, 5-bromo-2-[2-fluoro-6-[(5-chloro-2-pyrimidinyl)oxy]phenoxy]pyrimidine] has a pest or weed control at 250 g/ha [1] of 50%, a pest or weed control at 250 g/ha [2] of 80% and a plant injury at 250 g/ha (rice (Oryza sativa)) of 60%. For the same compound, the pest or weed control at 250 g/ha [3] was 85%, the pest or weed control at 1000 g/ha [4] was 70% and the pest or weed control at 1000 g/ha [5] was 100%. The pest or weed control at 1000 g/ha [6] was 100%, the pest or weed control at 1000 g/ha (kochia (Kochia scoparia) [7]) was 100% and the pest or weed control at 1000 g/ha [8] was 100%. The pest or weed control at 1000 g/ha [9] was 90%, the pest or weed control at 1000 g/ha [10] was 90% and the pest or weed control at 1000 g/ha [11] was 90%. For the same compound, the pest or weed control at 1000 g/ha [12] was 80%, the Corn plant response rating (crop injury, 0 = no effect, 100 = complete kill) at 1000 g/ha (corn (Zea mays)) was 40% and the pest or weed control at 1000 g/ha [13] was 90%. For the same compound, the pest or weed control at 1000 g/ha [14] was 90%, the pest or weed control at 1000 g/ha (kochia (Kochia scoparia) [15]) was 90% and the pest or weed control at 1000 g/ha [16] was 100%. It also gave a pest or weed control at 1000 g/ha [17] of 80%, a plant injury at 1000 g/ha [18] of 50% and a pest or weed control at 31 g/ha (kochia (Kochia scoparia) [19]; 31 g ai/ha) of 40%. The pest or weed control at 62 g/ha (kochia (Kochia scoparia) [19]; 62 g ai/ha) was 80%, the pest or weed control at 125 g/ha (kochia (Kochia scoparia) [19]; 125 g ai/ha) was 85% and the pest or weed control at 250 g/ha (kochia (Kochia scoparia) [19]; 250 g ai/ha) was 95%. For the same compound, the pest or weed control at 31 g/ha ([20]; 31 g ai/ha) was 70%, the pest or weed control at 62 g/ha ([20]; 62 g ai/ha) was 75% and the pest or weed control at 125 g/ha ([20]; 125 g ai/ha) was 90%. For the same compound, the pest or weed control at 250 g/ha ([20]; 250 g ai/ha) was 100%, the pest or weed control at 31 g/ha (wild oat (Avena fatua); 31 g ai/ha) was 0% and the pest or weed control at 62 g/ha (wild oat (Avena fatua); 62 g ai/ha) was 5%. For the same compound, the pest or weed control at 125 g/ha (wild oat (Avena fatua); 125 g ai/ha) was 10% and the pest or weed control at 250 g/ha (wild oat (Avena fatua); 250 g ai/ha) was 15%.
